Results from patent US4137224A (Schering Corporation, priority 1977, dated 1979).
In brackets after ≈: the same amount, converted by molar mass. Read-outs that look alike come from different tables or passages of the source. *1 amine or outer side, *2 acyl side, *3 side chain or, on linkers, in order; H or OH if unused. Where a SMILES comes first, the peptide text is derived from it. Bridges are numbered along the chain shown (N, C = ends). [ ]: non-standard residue; d: D form. The star is where a group is joined. NMeT = CN[CH](C(=O)O)[CH](C)O; X1 = CCCCCCCCCCCC(O)CC(=O)*; X2 = CC=C(N[*:1])C(=O)[*:2]; X3 = OCC1OC(*)C(O)C(O)C1O

Legend:
[1] = test system: Aeromonas sp. W-10; test: Resistance of Aeromonas sp. W-10 to antibacterial agents; type: cell-based; conditions: in words
Experimental: The growth and physiological characteristics of Aeromonas sp. All observations were made after seven (7) days of incubation at 28° C. Color designations are assigned according to the classification in the Color Harmony Manual (1958), Container Corporation of America. The designates G, S, C and R used herein stand for growth, surface, color and reaction, respectively.

[2] = test system: Candida albicans; test: In vivo activity in mice infected intravenously with Candida albicans; set-up: species or system male CFl mice; Candida albicans; conditions: 48 hours after infection, read-out: PD50
Experimental: PD50 values were determined 48 hours after infection and are as follows: […]

[3] = Toxicity (LD50), oral or subcutaneous administration; conditions: in vivo
[4] = test system: Trichophyton mentagrophytes; test: In vivo activity against Trichophyton mentagrophytes infection in guinea pigs; conditions: 1% in polyethylene glycol 400, topical, twice daily for ten days
Experimental: The skin of fifteen guinea pigs is abraided and infected with a standard culture of Trichophyton mentagrophytes. The infected animals are then separated into three groups containing five animals each. Suspensions containing 1% of the respective antibiotics in polyethylene glycol 400 are prepared. Two of the three groups are treated topically, twice daily for ten days commencing three days after infection. The third group (controls) remained untreated throughout the test. All of the animals are tested for infection by culture and observed for skin lesions for a total of 21 days.

[5] = test system: Saccharomyces cerevisiae ATCC 9763; test: Agar diffusion assay against Antibiotic 20562 standard; type: cell-based
Experimental: The broths are assayed against a standard solution of Antibiotic 20562 having an assigned potency of 1000 mcg/mg. The standard solution is diluted with 10% potassium phosphate buffer (pH 6.0) to make solutions having antibiotic concentrations of 3.2, 4.0, 5.0, 6.25 and 7.8 mcg/ml. The assay is performed substantially as set forth in the Federal Register, Title 21, Chapter 436.105.

[6] = test system: Candida albicans; test: In vitro MIC against strains of Candida albicans in Sabouraud dextrose broth; type: cell-based
Experimental: Antibiotic 20562 was tested in vitro in Sabourraud dextrose broth against strains of Candida albicans, the Minimum Inhibitory Concentration (MIC) being set forth in Table IV below: […]

[7] = test system: Candida albicans (Wisconsin strain); test: Topical in vivo activity against Candida albicans intravaginal infection in hamsters; set-up: species or system female hamsters; Candida albicans; conditions: three day treatment
Experimental: Using a culture of Candida albicans (Wisconsin strain), in Sabourrauds dextrose broth, infect intravaginally, five groups of six female hamsters. Forty-eight and seventy-two hours after infection, make smears of the infected animals and culture the smears. […] (96 hours after infection), make additional smears, culture and commence treatment. One group of six animals (controls) receives no treatment and, therefore, remains infected throughout the test. The remaining four groups of animals are treated with Antibiotic 20562, as 1%, 5%, 10% and 15% suspensions, respectively, the vehicle for suspension being administered on a cotton swab. At the end of the three day treatment the 1%, 5% and 10% groups are 60% cured, the 15% group is completely (100%) cured.

[8] = sc, single subcutaneous dose one hour after infection
[9] = single oral dose one hour after infection
[10] = Example 2 step B, after chromatography
[11] = Example 3 steps C and D, after chromatography
[12] = isolated antibiotics, crystalline from methanol

Q: Which “sensitivity of Aeromonas sp. W-10 to the vibriostatic compound” value [1] does the source give for `CC(C)c1nc2nc(N)nc(N)c2nc1C(C)C` [0/129, 2,4-diamino-6,7-diisopropylpteridine] here?
A: insensitive

Q: Which ED50 [2, 8] does the source give for `CC=C(NC(=O)CC(O)CCCCCCCCCCC)C(=O)NC1C(=O)NC(C(C)O)C(=O)NC(Cc2ccc(O)cc2)C(=O)NC(=CC)C(=O)NC(CCC(N)=O)C(=O)NCC(=O)N(C)C(C(C)O)C(=O)NC(Cc2cnc[nH]2)C(=O)OC1C` (centres unmarked) [Antibiotic 20561] (X1-[X2]TTY[X2]QG[NMeT]H; ester 2-C; configuration not given here) here?
A: 4 mg/kg

Q: And the ED50 [2, 9]?
A: 25 mg/kg

Q: What about the LD50 ([3]; po) of the same compound?
A: 1000 mg/kg

Q: What about the LD50 ([3]; sc) of the same compound?
A: > 1000 mg/kg

Q: And the “Days to become negative, Culture” value [4]?
A: 4.8 days

Q: And the “Days to become negative, Lesion” value [4]?
A: 6.3 days

Q: And the “assay (potency)” value [5, 10]?
A: 800 µg/mg

Q: What about the “assay (potency)” value [5, 11] of the same compound?
A: 800 µg/mg

Q: What about the “assay (potency)” value [5, 12] of the same compound?
A: about 800 mcg/mg

Q: For `CC=C(NC(=O)CC(O)CCCCCCCCCCC)C(=O)NC1C(=O)NC(C(C)O)C(=O)NC(Cc2ccc(O)cc2)C(=O)NC(=CC)C(=O)NC(CCC(N)=O)C(=O)NCC(=O)N(C)C(C(C)OC2OC(CO)C(O)C(O)C2O)C(=O)NC(Cc2cnc[nH]2)C(=O)OC1C` (centres unmarked) [Antibiotic 20562] (X1-[X2]TTY[X2]QG[NMeT](X3)H; ester 2-C; configuration not given here), which ED50 [2, 8] is on record?
A: 4 mg/kg

Q: And the ED50 [2, 9]?
A: 25 mg/kg

Q: And the LD50 ([3]; po)?
A: 800 mg/kg

Q: And the LD50 ([3]; sc)?
A: 600 mg/kg

Q: What about the “Days to become negative, Culture” value [4] of the same compound?
A: 5.8 days

Q: What about the “Days to become negative, Lesion” value [4] of the same compound?
A: 9.0 days

Q: What about the MIC ([6]; Candida albicans, strain Burke, read-out: MIC) of the same compound?
A: 0.075 µg/mL (≈ 0.0552 µM)

Q: And the MIC ([6]; strain 29)?
A: 0.075 µg/mL (≈ 0.0552 µM)

Q: What about the MIC ([6]; strain Bevan) of the same compound?
A: 0.075 µg/mL (≈ 0.0552 µM)

Q: And the MIC ([6]; strain Collins)?
A: 0.075 µg/mL (≈ 0.0552 µM)

Q: And the MIC ([6]; strain Fix)?
A: 0.075 µg/mL (≈ 0.0552 µM)

Q: And the MIC ([6]; strain Lush)?
A: 0.075 µg/mL (≈ 0.0552 µM)

Q: And the MIC ([6]; strain Merkel)?
A: 0.075 µg/mL (≈ 0.0552 µM)

Q: And the MIC ([6]; strain Newcomb)?
A: 0.075 µg/mL (≈ 0.0552 µM)

Q: What about the MIC ([6]; strain No. 1) of the same compound?
A: 0.075 µg/mL (≈ 0.0552 µM)

Q: What about the MIC ([6]; strain Raub) of the same compound?
A: 0.075 µg/mL (≈ 0.0552 µM)

Q: What about the MIC ([6]; strain Sperk) of the same compound?
A: 0.075 µg/mL (≈ 0.0552 µM)

Q: And the MIC ([6]; strain Wisconsin)?
A: 0.075 µg/mL (≈ 0.0552 µM)

Q: What about the “assay (potency)” value [5, 10] of the same compound?
A: 800 µg/mg

Q: What about the “assay (potency)” value [5, 11] of the same compound?
A: 1000 µg/mg

Q: What about the “assay (potency)” value [5, 12] of the same compound?
A: about 1000 mcg/mg

Q: What about the cured ([7]; 1% suspension) of the same compound?
A: 60%

Q: And the cured ([7]; 5% suspension)?
A: 60%

Q: And the cured ([7]; 10% suspension)?
A: 60%

Q: What about the cured ([7]; 15% suspension) of the same compound?
A: 100%
